Reference: ChEMBL document CHEMBL4665869, “New thiazolopyrimidine as anticancer agents: Synthesis, biological evaluation, DNA binding, molecular modeling and ADMET study” (Bioorg Med Chem Lett, 2020)
Values after ≈ are worked out from the molar mass of the structure shown.

Assays:
DNA = assay: Displacement of methyl green from DNA (unknown origin) assessed as DNA intercalation after 24 hrs by colorimetric assay; assay type: nucleic-acid assay
U-251 = assay: Growth inhibition of human U-251 cells at 10 uM relative to control; assay type: functional; settings: read-out: GI
UO-31 = assay: Growth inhibition of human UO-31 cells at 10 uM relative to control; assay type: functional; settings: read-out: GI
OVCAR-8 = assay: Growth inhibition of human OVCAR-8 cells at 10 uM relative to control; assay type: functional; settings: read-out: GI
HL-60(TB) = assay: Growth inhibition of human HL-60(TB) cells at 10 uM relative to control; assay type: functional; settings: read-out: GI
K562 = assay: Growth inhibition of human K562 cells at 10 uM relative to control; assay type: functional; settings: read-out: GI
M14 = assay: Growth inhibition of human M14 cells at 10 uM relative to control; assay type: functional; settings: read-out: GI
RXF 393 = assay: Growth inhibition of human RXF 393 cells at 10 uM relative to control; assay type: functional; settings: read-out: GI
TK-10 = assay: Growth inhibition of human TK-10 cells at 10 uM relative to control; assay type: functional; settings: read-out: GI
Malme-3M = assay: Growth inhibition of human Malme-3M cells at 10 uM relative to control; assay type: functional; settings: read-out: GI
786-0 = assay: Growth inhibition of human 786-0 cells at 10 uM relative to control; assay type: functional; settings: read-out: GI
SF-539 = assay: Growth inhibition of human SF-539 cells at 10 uM relative to control; assay type: functional; settings: read-out: GI
HT-29 = assay: Growth inhibition of human HT-29 cells at 10 uM relative to control; assay type: functional; settings: read-out: GI
Hs-578T = assay: Growth inhibition of human Hs-578T cells at 10 uM relative to control; assay type: functional; settings: read-out: GI
SNB-19 = assay: Growth inhibition of human SNB-19 cells at 10 uM relative to control; assay type: functional; settings: read-out: GI
ACHN = assay: Growth inhibition of human ACHN cells at 10 uM relative to control; assay type: functional; settings: read-out: GI
OVCAR-4 = assay: Growth inhibition of human OVCAR-4 cells at 10 uM relative to control; assay type: functional; settings: read-out: GI
T47D = assay: Growth inhibition of human T47D cells at 10 uM relative to control; assay type: functional; settings: read-out: GI
CAKI-1 = assay: Growth inhibition of human CAKI-1 cells at 10 uM relative to control; assay type: functional; settings: read-out: GI
RPMI-8226 = assay: Growth inhibition of human RPMI-8226 cells at 10 uM relative to control; assay type: functional; settings: read-out: GI
SW-620 = assay: Growth inhibition of human SW-620 cells at 10 uM relative to control; assay type: functional; settings: read-out: GI
LOX IMVI = assay: Growth inhibition of human LOX IMVI cells at 10 uM relative to control; assay type: functional; settings: read-out: GI
SNB-75 = assay: Growth inhibition of human SNB-75 cells at 10 uM relative to control; assay type: functional; settings: read-out: GI
HCC 2998 = assay: Growth inhibition of human HCC 2998 cells at 10 uM relative to control; assay type: functional; settings: read-out: GI
MCF7 = assay: Growth inhibition of human MCF7 cells at 10 uM relative to control; assay type: functional; settings: read-out: GI
KM12 = assay: Growth inhibition of human KM12 cells at 10 uM relative to control; assay type: functional; settings: read-out: GI
MDA-MB-468 = assay: Growth inhibition of human MDA-MB-468 cells at 10 uM relative to control; assay type: functional; settings: read-out: GI
SK-MEL-28 = assay: Growth inhibition of human SK-MEL-28 cells at 10 uM relative to control; assay type: functional; settings: read-out: GI
DU-145 = assay: Growth inhibition of human DU-145 cells at 10 uM relative to control; assay type: functional; settings: read-out: GI
OVCAR-5 = assay: Growth inhibition of human OVCAR-5 cells at 10 uM relative to control; assay type: functional; settings: read-out: GI
A498 = assay: Growth inhibition of human A498 cells at 10 uM relative to control; assay type: functional; settings: read-out: GI
COLO 205 = assay: Growth inhibition of human COLO 205 cells at 10 uM relative to control; assay type: functional; settings: read-out: GI
HCT-116 = assay: Growth inhibition of human HCT-116 cells at 10 uM relative to control; assay type: functional; settings: read-out: GI
NCI-H23 = assay: Growth inhibition of human NCI-H23 cells at 10 uM relative to control; assay type: functional; settings: read-out: GI
NCI-H322M = assay: Growth inhibition of human NCI-H322M cells at 10 uM relative to control; assay type: functional; settings: read-out: GI
BT-549 = assay: Growth inhibition of human BT-549 cells at 10 uM relative to control; assay type: functional; settings: read-out: GI
NCI/ADR-RES = assay: Growth inhibition of human NCI/ADR-RES cells at 10 uM relative to control; assay type: functional; settings: read-out: GI
HOP-92 = assay: Growth inhibition of human HOP-92 cells at 10 uM relative to control; assay type: functional; settings: read-out: GI
SN12C = assay: Growth inhibition of human SN12C cells at 10 uM relative to control; assay type: functional; settings: read-out: GI
SK-MEL-5 = assay: Growth inhibition of human SK-MEL-5 cells at 10 uM relative to control; assay type: functional; settings: read-out: GI
CCRF-CEM = assay: Growth inhibition of human CCRF-CEM cells at 10 uM relative to control; assay type: functional; settings: read-out: GI
NCI-H460 = assay: Growth inhibition of human NCI-H460 cells at 10 uM relative to control; assay type: functional; settings: read-out: GI
MDA-MB-231 = assay: Growth inhibition of human MDA-MB-231 cells at 10 uM relative to control; assay type: functional; settings: read-out: GI
HCT-15 = assay: Growth inhibition of human HCT-15 cells at 10 uM relative to control; assay type: functional; settings: read-out: GI
A549 = assay: Growth inhibition of human A549 cells at 10 uM relative to control; assay type: functional; settings: read-out: GI
SR = assay: Growth inhibition of human SR cells at 10 uM relative to control; assay type: functional; settings: read-out: GI
NCI-H522 = assay: Growth inhibition of human NCI-H522 cells at 10 uM relative to control; assay type: functional; settings: read-out: GI
PC-3 = assay: Growth inhibition of human PC-3 cells at 10 uM relative to control; assay type: functional; settings: read-out: GI
IGROV-1 = assay: Growth inhibition of human IGROV-1 cells at 10 uM relative to control; assay type: functional; settings: read-out: GI
UACC-62 = assay: Growth inhibition of human UACC-62 cells at 10 uM relative to control; assay type: functional; settings: read-out: GI
NCI-H226 = assay: Growth inhibition of human NCI-H226 cells at 10 uM relative to control; assay type: functional; settings: read-out: GI
SK-MEL-2 = assay: Growth inhibition of human SK-MEL-2 cells at 10 uM relative to control; assay type: functional; settings: read-out: GI
SF-295 = assay: Growth inhibition of human SF-295 cells at 10 uM relative to control; assay type: functional; settings: read-out: GI
SK-OV-3 = assay: Growth inhibition of human SK-OV-3 cells at 10 uM relative to control; assay type: functional; settings: read-out: GI
HOP-62 = assay: Growth inhibition of human HOP-62 cells at 10 uM relative to control; assay type: functional; settings: read-out: GI
MDA-MB-435 = assay: Growth inhibition of human MDA-MB-435 cells at 10 uM relative to control; assay type: functional; settings: read-out: GI
MOLT-4 = assay: Growth inhibition of human MOLT-4 cells at 10 uM relative to control; assay type: functional; settings: read-out: GI
SF-268 = assay: Growth inhibition of human SF-268 cells at 10 uM relative to control; assay type: functional; settings: read-out: GI

COc1cc(/C=C/C2=CC(c3cc(OC)c(OC)c(OC)c3)N3C=CSC3=N2)cc(OC)c1OC (stereo not given)
IC50 (DNA): 55.42 µg/mL (≈ 112 µM)

CCOC(=O)C1=CSC2=NC(/C=C/c3ccc(OC)cc3)=CC(c3ccc(OC)cc3)N12 (stereo not given)
IC50 (DNA): 28.38 µg/mL (≈ 63.3 µM)

COc1ccc(/C=C/C2=CC(c3ccc(OC)c(OC)c3)N3C(C)=CSC3=N2)cc1OC (stereo not given)
inhibition of growth at 10 µM (U-251): < 10% | inhibition of growth at 10 µM (UO-31): 11.7% | inhibition of growth at 10 µM (OVCAR-8): < 10% | inhibition of growth at 10 µM (HL-60(TB)): < 10% | inhibition of growth at 10 µM (K562): < 10% | inhibition of growth at 10 µM (M14): < 10% | inhibition of growth at 10 µM (RXF 393): < 10% | inhibition of growth at 10 µM (TK-10): < 10% | inhibition of growth at 10 µM (Malme-3M): < 10% | inhibition of growth at 10 µM (786-0): < 10% | inhibition of growth at 10 µM (SF-539): < 10% | inhibition of growth at 10 µM (HT-29): < 10% | inhibition of growth at 10 µM (Hs-578T): < 10% | inhibition of growth at 10 µM (SNB-19): < 10% | inhibition of growth at 10 µM (ACHN): < 10% | inhibition of growth at 10 µM (OVCAR-4): < 10% | inhibition of growth at 10 µM (T47D): < 10% | inhibition of growth at 10 µM (CAKI-1): < 10% | inhibition of growth at 10 µM (RPMI-8226): < 10% | inhibition of growth at 10 µM (SW-620): < 10% | inhibition of growth at 10 µM (LOX IMVI): < 10% | inhibition of growth at 10 µM (SNB-75): < 10% | inhibition of growth at 10 µM (HCC 2998): < 10% | inhibition of growth at 10 µM (MCF7): < 10% | inhibition of growth at 10 µM (KM12): < 10% | inhibition of growth at 10 µM (MDA-MB-468): < 10% | inhibition of growth at 10 µM (SK-MEL-28): < 10% | inhibition of growth at 10 µM (DU-145): < 10% | inhibition of growth at 10 µM (OVCAR-5): < 10% | inhibition of growth at 10 µM (A498): 17.6% | inhibition of growth at 10 µM (COLO 205): < 10% | inhibition of growth at 10 µM (HCT-116): < 10% | inhibition of growth at 10 µM (NCI-H23): < 10% | inhibition of growth at 10 µM (NCI-H322M): < 10% | inhibition of growth at 10 µM (BT-549): < 10% | inhibition of growth at 10 µM (NCI/ADR-RES): < 10% | inhibition of growth at 10 µM (HOP-92): 18% | inhibition of growth at 10 µM (SN12C): < 10% | inhibition of growth at 10 µM (SK-MEL-5): < 10% | inhibition of growth at 10 µM (CCRF-CEM): < 10% | inhibition of growth at 10 µM (NCI-H460): < 10% | IC50 (DNA): 72.54 µg/mL (≈ 161 µM) | inhibition of growth at 10 µM (MDA-MB-231): < 10% | inhibition of growth at 10 µM (HCT-15): < 10% | inhibition of growth at 10 µM (A549): < 10% | inhibition of growth at 10 µM (SR): < 10% | inhibition of growth at 10 µM (NCI-H522): < 10% | inhibition of growth at 10 µM (PC-3): < 10% | inhibition of growth at 10 µM (IGROV-1): < 10% | inhibition of growth at 10 µM (UACC-62): < 10% | inhibition of growth at 10 µM (NCI-H226): < 10% | inhibition of growth at 10 µM (SK-MEL-2): < 10% | inhibition of growth at 10 µM (SF-295): < 10% | inhibition of growth at 10 µM (SK-OV-3): < 10% | inhibition of growth at 10 µM (HOP-62): < 10% | inhibition of growth at 10 µM (MDA-MB-435): < 10% | inhibition of growth at 10 µM (MOLT-4): < 10% | inhibition of growth at 10 µM (SF-268): < 10%
